Results published in ChEMBL document CHEMBL4837262, “Development and Profiling of Inverse Agonist Tools for the Neuroprotective Transcription Factor Nurr1” (J Med Chem, 2021).
Activity calls are given as the source filed them. The calls are words filed in the database; no cut-off is given here.

How the values were obtained:
[1] = target: T1, Nuclear receptor subfamily 4 group A member 2 (Homo sapiens, UniProt P43354); test: Inverse agonist activity at Gal4-fused human Nurr1 LBD expressed in HEK293T cells co-expressing firefly luciferase assessed as luciferase activity by hybrid reporter gene assay; format: cell-based
[2] = test system: T98G; test: Cytotoxicity against human T98G cells assessed as reduction in cell viability at >30 uM after 24 hrs by WST-1 assay; format: cell-based
[3] = target: T1, Nuclear receptor subfamily 4 group A member 2; test: Inverse agonist activity at human Nurr1 LBD assessed as inhibition of SRC1-Nurr1 interaction after 2 hrs by HTRF assay
[4] = target: T1, Nuclear receptor subfamily 4 group A member 2; test: Inverse agonist activity at human Nurr1 LBD assessed as displacement of NCoR1 from Nurr1 after 2 hrs by HTRF assay
[5] = test system: HEK-293T; test: Cytotoxicity against human HEK293T cells assessed as reduction in cell viability at >30 uM after 24 hrs by WST-1 assay; format: cell-based
[6] = target: T1, Nuclear receptor subfamily 4 group A member 2; test: Inverse agonist activity at Gal4-fused human Nurr1 LBD expressed in HEK293T cells co-expressing firefly luciferase assessed as luciferase activity in presence of AQ by hybrid reporter gene assay; format: cell-based
[7] = target: T1, Nuclear receptor subfamily 4 group A member 2; test: Inverse agonist activity at human Nurr1 LBD assessed as inhibition of CBP1-Nurr1 interaction after 2 hrs by HTRF assay
[8] = target: T1, Nuclear receptor subfamily 4 group A member 2; test: Inverse agonist activity at Gal4-fused human Nurr1 monomer response element NBRE expressed in HEK293T cells co-expressing firefly luciferase assessed as luciferase activity by hybrid reporter gene assay; format: cell-based
[9] = target: T1, Nuclear receptor subfamily 4 group A member 2; test: Inverse agonist activity at human Nurr1 LBD assessed as inhibition of heterodimerization of Nurr1 with RXRalpha after 2 hrs by HTRF assay
[10] = target: T1, Nuclear receptor subfamily 4 group A member 2; test: Inverse agonist activity at human Nurr1 LBD assessed as inhibition of NCoA6-Nurr1 interaction after 2 hrs by HTRF assay
[11] = target: T1, Nuclear receptor subfamily 4 group A member 2; test: Inverse agonist activity at human Nurr1 LBD assessed as inhibition of Nurr1 homodimerization after 2 hrs by HTRF assay; conditions: filed as inverse agonist
[12] = target: T1, Nuclear receptor subfamily 4 group A member 2; test: Inverse agonist activity at human Nurr1 LBD assessed as displacement of NCoR2 from Nurr1 after 2 hrs by HTRF assay
[13] = target: T1, Nuclear receptor subfamily 4 group A member 2; test: Agonist activity at Gal4-fused human Nurr1 LBD expressed in HEK293T cells co-expressing firefly luciferase assessed as fold increase in luciferase activity by hybrid reporter gene assay relative to control; format: cell-based; conditions: filed as agonist
[14] = target: T1, Nuclear receptor subfamily 4 group A member 2; test: Agonist activity at Gal4-fused human Nurr1 LBD expressed in HEK293T cells co-expressing firefly luciferase assessed as luciferase activity by hybrid reporter gene assay; format: cell-based
[15] = test system: HEK-293T; test: Cytotoxicity against human HEK293T cells assessed as reduction in cell viability upto 100 uM after 24 hrs by WST-1 assay; format: cell-based
[16] = test system: T98G; test: Cytotoxicity against human T98G cells assessed as reduction in cell viability upto 100 uM after 24 hrs by WST-1 assay; format: cell-based
[17] = target: T1, Nuclear receptor subfamily 4 group A member 2; test: Agonist activity at Gal4-fused human Nurr1 LBD expressed in HEK293T cells co-expressing firefly luciferase assessed as luciferase activity in presence of 5-(Pyridin-3-yl)-1-methylindole-3-carboxylic Acid Methyl Ester by hybrid reporter gene assay; format: cell-based

T1 sequence (P43354 whole entry, the tested form may be a part): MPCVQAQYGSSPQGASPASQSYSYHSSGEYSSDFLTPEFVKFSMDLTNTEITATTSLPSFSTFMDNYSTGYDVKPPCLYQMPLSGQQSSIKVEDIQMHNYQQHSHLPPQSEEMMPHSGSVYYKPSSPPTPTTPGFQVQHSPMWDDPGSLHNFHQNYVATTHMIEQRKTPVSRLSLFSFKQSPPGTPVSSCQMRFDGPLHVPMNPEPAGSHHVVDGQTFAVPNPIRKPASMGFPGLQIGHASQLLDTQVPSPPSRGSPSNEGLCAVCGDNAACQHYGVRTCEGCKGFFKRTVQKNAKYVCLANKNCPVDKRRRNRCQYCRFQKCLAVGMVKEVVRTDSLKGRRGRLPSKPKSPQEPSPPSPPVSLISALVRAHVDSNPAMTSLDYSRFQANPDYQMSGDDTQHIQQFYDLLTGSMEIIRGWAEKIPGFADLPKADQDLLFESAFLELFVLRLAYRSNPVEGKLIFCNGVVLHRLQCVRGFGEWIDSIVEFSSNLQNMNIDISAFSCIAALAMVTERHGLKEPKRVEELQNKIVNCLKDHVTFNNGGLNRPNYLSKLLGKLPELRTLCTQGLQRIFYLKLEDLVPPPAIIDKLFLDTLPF

IC50 ([1]; hek293t)	IC50 ([1]; read-out: IC50)	SMILES	other results
Not Active		COC(=O)c1c[nH]c2cccc(C)c12	
	14 µM	CNC(=O)c1cn(C)c2ccc(-c3ccccc3)cc12	
Not Active		O=Cc1c[nH]c2ccccc12 [3-FORMYLINDOLE]	
	15 µM	COC(=O)c1c[nH]c2ccc(Br)cc12	
	> 30 µM	CN(C)C(=O)c1cn(C)c2ccc(-c3ccccc3)cc12	
Not Active		CCC(=O)c1c[nH]c2ccccc12	
	3.8 µM	COC(=O)c1cn(C)c2ccc(-c3cccnc3)cc12	Activity [2]: Toxic; Activity [3]: inactive; IC50 [4]: 57 µM; Activity [5]: Toxic; IC50 [6]: 3.7 µM; Activity [7]: inactive; IC50 [8]: 10 µM; Activity [9]: inactive; Activity [10]: inactive; Activity [11]: Dose-Dependent Effect; IC50 [12]: 29 µM
Not Active		COC(=O)c1c[nH]c2c(OC)cccc12	
	11 µM	COC(=O)c1cn(C)c2c(Cl)cc(-c3cccnc3)cc12	
	24 µM	COC(=O)c1c[nH]c2ccc(Cl)cc12	
	23 µM	COC(=O)c1c[nH]c2ccc(OC)cc12	
	48 µM	COC(=O)c1c[nH]c2ccccc12	
	20 µM	COC(=O)c1c[nH]c2ccc(C)cc12	
Not Active		CC(=O)c1c[nH]c2ccccc12	
		COC(=O)c1cn(-c2ccccc2)c2ccccc12	fold change (FC) [13]: 1.9; EC50 [14]: 81 µM
	19 µM	COC(=O)c1c[nH]c2c(Cl)cccc12	
	53 µM	COC(=O)c1c(C)[nH]c2ccccc12	
Not Active		O=C(O)c1c[nH]c2ccccc12	
		COC(=O)c1cn(C)c2ccc(-c3ccccc3)cc12	Activity [15]: Non-Toxic; Activity [16]: Non-Toxic
Not Active		COC(=O)c1c[nH]c2ccc(Cc3ccccc3)cc12	
	57 µM	COC(=O)c1c[nH]c2cc(C)ccc12	
Not Active		CCOC(=O)c1c[nH]c2ccccc12	
Not Active		CCNC(=O)c1cn(C)c2ccc(-c3ccccc3)cc12	
	35 µM	COC(=O)c1c[nH]c2c(C)cccc12	
		O=C(Oc1ccccc1)c1c[nH]c2ccccc12	fold change (FC) [13]: 1.93; EC50 [14]: 11 µM
Not Active		CC(C)(C)OC(=O)c1c[nH]c2ccccc12	
		CCN(CC)Cc1cc(Nc2ccnc3cc(Cl)ccc23)ccc1O [AMODIAQUINE]	EC50 [17]: 82 µM; EC50 [14]: 41 µM
	34 µM	COC(=O)c1c(Cl)[nH]c2ccccc12	
	55 µM	COC(=O)c1c[nH]c2cccc(Cl)c12	
	21 µM	COC(=O)c1cn(C)c2ccccc12	

SMILES	IC50 ([1]; hek293t)	IC50 ([1]; read-out: IC50)	other results
CCn1cc(C(=O)OC)c2ccccc21		31 µM	
COC(=O)c1cn(Cc2ccccc2)c2ccccc12	Not Active		
